Reference: patent publication US7713477B2, “Systems and methods for monitoring chemical and biological activities using differential measurements” (priority 2002, dated 2010)

Columns and labels:
TF-1 cells [1] = test: Differential response of TF-1 cells against stimuli and controls at one, two and five minutes (FIG. 9B); type: cell-based; settings: two and five minutes after stimulation, factor 100:1 dilution in d-PBS, 25 microliter into approximately 200 microliters cell suspension
From the text: FIG. 9B illustrates a second set of experiments, in which the differential responses of a population of TF-1 cells against numerous stimuli and controls are shown at one minute, two minutes, and five minutes after stimulation. In these experiments, a population of TF-1 cells was fractionated into two portions of equal volume and cell density immediately before the experiment. One of the two fractions received a potential stimulus, and the other a control in the form of a quantity of pure Dulbecco's phosphate buffered saline (d-PBS)equal to the quantity of d-PBS which contained the stimulant. […] Next, a series of factors and interleukins was compared against a reference sample. Each factor was introduced into one of two fractionated volumes containing TF-1 cells, via a 100:1 dilution of factor to d-PBS, followed by a 25 microliter addition of the diluted factor into approximately 200 microliters of the cell suspension. At the same time, the reference population of cells was prepared by adding 25 microliters of d-PBS alone into the second of the two cell fractions. Both fractions were then inserted into their respective channels in the apparatus, wherein said reference population was always inserted in the same channel, and measurements of the differential voltage were taken at pre-defined intervals over a five minute period. After each experiment, both channels were flushed with ˜2 ml of cell-free culture media, to insure that all previous cellular material and any other potential compounds from a given experiment were removed from the channel before the subsequent experiment.

TF-1 cells [2] = settings: stated as known, background knowledge; cited from earlier work
concanavalin-A = concanavalin-A (Canavalia ensiformis, UniProt P02866); test: Binding of dextran in solution to concanavalin-A immobilized on the measurement probes (FIG. 6); settings: phosphate buffered saline with calcium and magnesium, physiologic pH and osmolarity; regions 600b and 600c of FIG. 6
From the text: A common AC voltage of approximately 40 millivolts and at a frequency of approximately 1 KHz is placed upon measurement probes 313 and 323. The circuit continues across the interface of measurement probes 313 and 323, through the conductive solution in sample chambers 310 and 320, and completed via attachment of signal grounds 314 and 324.
The voltage difference between measurement probes 313 and 317 is placed across the antipodal inputs of the first differential amplifier 221; similarly, the voltage across measurement probes 323 and 327 is placed across antipodal inputs of the second differential amplifier 222. The amplified differential voltages produced by 221 and 222 are fed into DC-converters 224 and 225 (e.g., root-mean-square averaging devices. The outputs 221a and 222a, being now of a DC nature, are input into antipodal inputs of the third differential amplifier 226, the resulting difference signal 227 being measured by a simple voltmeter 400, said voltmeter referenced to the common ground. This voltage is directly proportional to the difference in the voltage drops across the two pairs of measurement probes 313 and 317, and 323 and 327.
FIG. 6 illustrates the result of a second experiment using the monitoring system of FIG. 3B. […]

TF-1 cells [3] = test: Differential response of TF-1 cells stimulated vs un-stimulated, monitoring system of FIG. 8 (FIG. 9A); type: cell-based
From the text: In this set of experiments, the monitoring system as shown in FIG. 8 was used to directly compare the activity of a known modification of the extra-cellular environment to controls. In the monitoring system of FIG. 8, two sample chambers (formed a fluid channels) 800a and 800b, along with four ports 801a-d, were fabricated using micromachining techniques on an acrylic substrate. The dimensions of the channels were approximately 250 micrometers wide, 100 micrometers deep, and with a total length of approximately 1.5 centimeters. The substrate was fastened in a water-tight manner, using thin film epoxy, to a pre-fabricated printed circuit board (not explicitly shown), on which eight gold-plated copper conductive traces 820a-d and 830a-d of width approximately 250 micrometers were deposited. Using the monitoring system architecture shown in FIG. 3D, in which the phase meter 223 was not present and DC-converters 224 and 225 comprised a device which converts and AC signal into a DC signal, whose amplitude is roughly the root-mean-square (RMS) of the AC amplitude. […]

Molecule | differential response over the three controls (TF-1 cells [1]) | known activity against TF-1 cells (TF-1 cells [2]) | further results
IL5: interleukin tested on TF-1 cells | significantly larger differential response over the three controls | – | –
bovine serum albumin [BSA, reference compound] | – | known not to affect TF-1 cells | –
dextran | – | – | binding of dextran to immobilized concanavalin-A, shown as new voltage level (concanavalin-A): bound specifically to the immobilized concanavalin-A molecules
granulocyte-macrophage colony stimulating factor [GM-CSF] | significantly larger differential response over the three controls | induces cell proliferation in TF-1 cells | time at which change in differential response begins (TF-1 cells [3]; AC approximately 10 KHz, thirty minute experiment, change continues nearly monotonic): around eight; differential response of stimulated cells over the control (TF-1 cells [3]; AC frequency approximately 10 KHz, about 2 million cells per milliliter, GM-CSF in quantity to elicit maximum response, followed thirty minutes): show a change in the differential response over the control
IL4: interleukin tested on TF-1 cells (protein, UniProt P05112 25-153, looked up) Interleukin-4: HKCDITLQEIIKTLNSLTEQKTLCTELTVTDIFAASKNTTEKETFCRAATVLRQFYSHHEKDTRCLGATAQQFHRHKQLIRFLKRLDRNLWGLAGLNSCPVKEANQSTLENFLERLKTIMREKYSKCSS | significantly larger differential response over the three controls | – | –
